Molecular target: α4β7 integrin (Homo sapiens (Human), UniProt P13612+P26010)
Test: α4β7 Integrin Cell Capture Assay
Assay type: cell-based
[1] = RPMI8866 cells captured on MadCAM-1 extracellular domain-coated plate
[2] = Table 2, capture of α4β7 expressing RPM18866 cells on MadCAM-1 extracellular domain-coated plate
[3] = Table 1, capture of α4β7 expressing RPM18866 cells on MadCAM-1 extracellular domain-coated plate

α4β7 integrin, sequence (P13612 34-1032): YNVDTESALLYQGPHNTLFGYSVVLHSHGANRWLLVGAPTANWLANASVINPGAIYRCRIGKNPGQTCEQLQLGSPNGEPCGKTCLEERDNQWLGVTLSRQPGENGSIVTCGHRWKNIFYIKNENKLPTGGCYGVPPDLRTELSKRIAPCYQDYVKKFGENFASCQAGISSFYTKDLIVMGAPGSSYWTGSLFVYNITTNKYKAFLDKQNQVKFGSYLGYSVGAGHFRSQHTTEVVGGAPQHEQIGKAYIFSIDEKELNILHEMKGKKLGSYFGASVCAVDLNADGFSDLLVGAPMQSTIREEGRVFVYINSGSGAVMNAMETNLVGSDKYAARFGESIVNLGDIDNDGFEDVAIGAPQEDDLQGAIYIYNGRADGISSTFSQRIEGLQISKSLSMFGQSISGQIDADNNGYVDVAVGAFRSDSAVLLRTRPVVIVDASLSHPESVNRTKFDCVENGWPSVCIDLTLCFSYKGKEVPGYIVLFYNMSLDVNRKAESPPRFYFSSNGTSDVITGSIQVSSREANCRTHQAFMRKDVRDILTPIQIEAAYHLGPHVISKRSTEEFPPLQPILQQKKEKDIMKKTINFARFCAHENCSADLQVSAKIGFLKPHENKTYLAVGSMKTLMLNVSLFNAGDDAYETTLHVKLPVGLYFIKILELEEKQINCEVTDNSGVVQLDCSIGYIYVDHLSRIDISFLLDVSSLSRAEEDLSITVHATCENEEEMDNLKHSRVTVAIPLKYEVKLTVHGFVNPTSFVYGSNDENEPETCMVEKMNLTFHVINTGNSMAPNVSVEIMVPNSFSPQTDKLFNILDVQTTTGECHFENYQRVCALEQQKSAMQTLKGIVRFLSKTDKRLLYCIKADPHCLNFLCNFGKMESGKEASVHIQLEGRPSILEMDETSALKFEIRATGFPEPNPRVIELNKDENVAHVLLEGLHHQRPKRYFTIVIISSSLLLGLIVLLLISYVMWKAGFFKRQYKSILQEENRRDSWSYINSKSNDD
α4β7 integrin, sequence (P26010 20-798): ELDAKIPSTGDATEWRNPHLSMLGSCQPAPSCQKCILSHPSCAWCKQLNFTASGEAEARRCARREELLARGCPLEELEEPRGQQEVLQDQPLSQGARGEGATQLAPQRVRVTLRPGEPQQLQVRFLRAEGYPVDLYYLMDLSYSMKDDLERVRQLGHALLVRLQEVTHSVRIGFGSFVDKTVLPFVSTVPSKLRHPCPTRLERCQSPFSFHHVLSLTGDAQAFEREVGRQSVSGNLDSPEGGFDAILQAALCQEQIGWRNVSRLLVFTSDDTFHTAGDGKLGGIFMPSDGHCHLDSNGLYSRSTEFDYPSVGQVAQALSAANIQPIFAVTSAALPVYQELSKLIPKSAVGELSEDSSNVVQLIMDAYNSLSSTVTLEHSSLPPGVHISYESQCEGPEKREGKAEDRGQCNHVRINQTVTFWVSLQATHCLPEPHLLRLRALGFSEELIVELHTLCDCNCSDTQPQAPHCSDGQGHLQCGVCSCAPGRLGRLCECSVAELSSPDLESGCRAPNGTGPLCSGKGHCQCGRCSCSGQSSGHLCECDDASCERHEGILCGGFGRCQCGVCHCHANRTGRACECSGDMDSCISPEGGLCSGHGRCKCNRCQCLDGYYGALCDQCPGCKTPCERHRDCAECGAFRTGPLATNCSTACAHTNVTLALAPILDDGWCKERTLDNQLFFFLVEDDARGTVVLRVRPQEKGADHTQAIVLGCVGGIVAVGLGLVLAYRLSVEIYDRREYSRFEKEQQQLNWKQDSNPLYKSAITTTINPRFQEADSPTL

Compound	EC50 [2]	EC50 [3]	other results
Cc1cc(N2CCOC[C@@H]2C(F)(F)F)cc(F)c1C(=O)N[C@@H](Cc1cc(F)c(-n2c(=O)c3ccncc3n(C)c2=O)c2ncccc12)C(=O)O [Example 433]	–	–	EC50 [1]: 0.076 nM
Cc1cc(N2CCOC[C@@H]2C(F)(F)F)cc(F)c1C(=O)N[C@@H](Cc1ccc(-c2c(C)c(Cl)cn(C)c2=O)c2ncccc12)C(=O)O [Example 451]	–	–	EC50 [1]: 0.208 nM
C[C@@H](Nc1cc(F)c(C(=O)N[C@@H](Cc2ccc(-c3ncccc3C(F)(F)F)c3ncccc23)C(=O)O)c(F)c1)C(F)(F)F [Example 283]	5.7 nM	–	–
Cn1ccc2c(Cl)c(C(=O)N[C@@H](Cc3ccc(-c4ccc(C#N)cc4Cl)c4ncccc34)C(=O)O)c(Cl)cc21 [Example 285]	46.2 nM	–	–
Cn1c(=O)n(-c2ccc(C[C@H](NC(=O)c3c(F)cc(N4CCOC[C@@H]4C(F)(F)F)cc3Cl)C(=O)O)c3cccnc23)c(=O)c2ccncc21 [Example 414]	–	–	EC50 [1]: 0.048 nM
Cc1cc(C)n(C)c(=O)c1-c1ccc(C[C@H](NC(=O)c2c(F)cc(N3CCCC[C@@H]3C(F)(F)F)cc2F)C(=O)O)c2cccnc12 [Example 202]	1.5 nM	–	–
Cc1cc(C(F)(F)F)c(-c2ccc(C[C@H](NC(=O)c3c(F)cc(N4CCOC[C@@H]4CC(F)F)cc3F)C(=O)O)c3cccnc23)c(=O)n1C [Example 130, (S)-2-(4-((S)-3-(2,2-difluoroethyl)morpholino)-2,6-difluorobenzamido)-3-(8-(1,6-dimethyl-2-oxo-4-(trifluoromethyl)-1,2-dihydropyridin-3-yl)quinolin-5-yl)propanoic acid]	–	0.5 nM	–
N#Cc1ccc(-c2ccc(C[C@H](NC(=O)c3c(F)cc(N4CCCC[C@@H]4C(F)(F)F)cc3F)C(=O)O)c3cccnc23)c(Cl)c1 [Example 75, (S)-3-(8-(2-chloro-4-cyanophenyl)quinolin-5-yl)-2-(2,6-difluoro-4-((R)-2-(trifluoromethyl)piperidin-1-yl)benzamido)propanoic acid]	–	80.4 nM	–
CCc1nc(-c2ccc(C[C@H](NC(=O)c3c(F)cc(N[C@H](CC)C(F)(F)F)cc3F)C(=O)O)c3cccnc23)c(=O)n(C)c1CC [Example 176]	0.9 nM	–	–
Cc1cc(C)c(-c2ccc(C[C@H](NC(=O)c3c(F)cccc3F)C(=O)O)c3cccnc23)nc1C [Example 11, (S)-2-(2,6-difluorobenzamido)-3-(8-(3,5,6-trimethylpyridin-2-yl)quinolin-5-yl)propanoic acid]	–	22.9 nM	–
Cc1cc(N2CCOC[C@@H]2C(F)(F)F)cc(F)c1C(=O)N[C@@H](Cc1ccc(-c2ccc(C)n(C)c2=O)c2ncccc12)C(=O)O [Example 444]	–	–	EC50 [1]: 0.161 nM
Cc1cc(C(F)(F)F)c(-c2ccc(C[C@H](NC(=O)c3c(F)cc(N4C[C@H]5C[C@H]5[C@@H]4C(F)(F)F)cc3F)C(=O)O)c3cccnc23)c(=O)n1C [Example 483]	–	–	EC50 [1]: 0.544 nM
Cc1cc(C(F)(F)F)c(-c2ccc(C[C@H](NC(=O)c3c(F)cc(N4CCCC[C@@H]4C(F)(F)F)cc3F)C(=O)O)c3cccnc23)c(=O)n1C (atropisomer, axis not shown) [Example 230]	2.2 nM	–	–
Cc1cc(C(F)(F)F)c(-c2ccc(C[C@H](NC(=O)c3c(F)cc(N4C[C@@H](C)OC[C@@H]4C(F)(F)F)cc3F)C(=O)O)c3cccnc23)c(=O)n1C [Example 136, (S)-2-(2,6-difluoro-4-((2R,5R)-2-methyl-5-(trifluoromethyl)morpholino)benzamido)-3-(8-(1,6-dimethyl-2-oxo-4-(trifluoromethyl)-1,2-dihydropyridin-3-yl)quinolin-5-yl)propanoic acid]	–	0.2 nM	–
CC[C@@H](Nc1cc(F)c(C(=O)N[C@@H](Cc2ccc(-c3c(C(F)(F)F)cc(C)n(C)c3=O)c3ncccc23)C(=O)O)c(F)c1)C(F)(F)F [Example 91, (S)-2-(2,6-difluoro-4-(((R)-1,1,1-trifluorobutan-2-yl)amino)benzamido)-3-(8-(1,6-dimethyl-2-oxo-4-(trifluoromethyl)-1,2-dihydropyridin-3-yl)quinolin-5-yl)propanoic acid]	–	0.3 nM	–
Cc1cc2c(=O)n(-c3ccc(C[C@H](NC(=O)c4c(C)cc(N5CCOC[C@@H]5C(F)(F)F)cc4F)C(=O)O)c4cccnc34)c(=O)n(C)c2cn1 [Example 425]	–	–	EC50 [1]: 0.185 nM
N#Cc1ccc(-c2ccc(C[C@H](NC(=O)c3c(F)cc(N[C@H](c4ccccc4)C(F)(F)F)cc3F)C(=O)O)c3cccnc23)c(Cl)c1 [Example 86, (S)-3-(8-(2-chloro-4-cyanophenyl)quinolin-5-yl)-2-(2,6-difluoro-4-(((R)-2,2,2-trifluoro-1-phenylethyl)amino)benzamido)propanoic acid]	–	8.3 nM	–
N#Cc1ccc(-c2ccc(C[C@H](NC(=O)c3c(F)cc(NC4(C(F)(F)F)CCC4)cc3F)C(=O)O)c3cccnc23)c(Cl)c1 [Example 164]	88.6 nM	–	–

Compound	EC50 [2]	EC50 [3]	other results
N#Cc1ccc(-c2ccc(C[C@H](NC(=O)c3c(Cl)cc4[nH]c(C5CC5)cc4c3Cl)C(=O)O)c3cccnc23)c(Cl)c1 [Example 225]	53.7 nM	–	–
Cc1cc(N2CCOC[C@@H]2C(F)(F)F)cc(F)c1C(=O)N[C@@H](Cc1ccc(-n2c(=O)c3cnccc3n(C)c2=O)c2ncc(F)cc12)C(=O)O [Example 427]	–	–	EC50 [1]: 0.355 nM
N#Cc1ccc(-c2ccc(C[C@H](NC(=O)c3c(F)cc(NS(=O)(=O)c4ccccc4)cc3F)C(=O)O)c3cccnc23)c(Cl)c1 [Example 46, (S)-3-(8-(2-chloro-4-cyanophenyl)quinolin-5-yl)-2-(2,6-difluoro-4-(phenylsulfonamido)benzamido)propanoic acid]	–	20 nM	–
Cn1cc(-c2ccc(C[C@H](NC(=O)c3c(F)cc(N[C@H](c4ccc(Cl)cc4)C(F)(F)F)cc3F)C(=O)O)c3cccnc23)c(=O)n(C)c1=O [Example 232]	0.9 nM	–	–
Cc1cc(N2CCOC[C@@H]2C(F)(F)F)cc(F)c1C(=O)N[C@@H](Cc1ccc(-n2c(=O)c3ccncc3n(C)c2=O)c2ncc(F)cc12)C(=O)O [Example 426]	–	–	EC50 [1]: 0.096 nM
Cc1cc(C(F)(F)F)c(-c2ccc(C[C@H](NC(=O)c3c(F)cc(N4CCOCC4)cc3F)C(=O)O)c3cccnc23)c(=O)n1C [Example 217]	2 nM	–	–
CC[C@@H](Nc1cc(F)c(C(=O)N[C@@H](Cc2ccc(-c3nc(C)c4ccc(F)cc4n3)c3ncccc23)C(=O)O)c(F)c1)C(F)(F)F [Example 258]	3.6 nM	–	–
Cc1cc(C(F)(F)F)c(-c2ccc(C[C@H](NC(=O)c3c(F)cc(N4C[C@H](C)OC[C@H]4C)cc3F)C(=O)O)c3cccnc23)c(=O)n1C [Example 243]	2.9 nM	–	–
CC[C@@H](Nc1cc(C)c(C(=O)N[C@@H](Cc2ccc(-c3c(C(F)(F)F)cc(C)n(C)c3=O)c3ncccc23)C(=O)O)c(F)c1)C(F)(F)F [Example 142, (S)-3-(8-(1,6-dimethyl-2-oxo-4-(trifluoromethyl)-1,2-dihydropyridin-3-yl)quinolin-5-yl)-2-(2-fluoro-6-methyl-4-(((R)-1,1,1-trifluorobutan-2-yl)amino)benzamido)propanoic acid]	–	0.2 nM	–
COc1cnn(C)c(=O)c1-c1ccc(C[C@H](NC(=O)c2c(F)cccc2F)C(=O)O)c2cccnc12 [Example 70, (S)-2-(2,6-difluorobenzamido)-3-(8-(5-methoxy-2-methyl-3-oxo-2,3-dihydropyridazin-4-yl)quinolin-5-yl)propanoic acid]	–	10.7 nM	–
O=C(N[C@@H](Cc1ccc(-c2ccsc2)c2ncccc12)C(=O)O)c1c(F)cc(NS(=O)(=O)c2ccc(-c3ccnc(F)c3)cc2)cc1F [Example 52, (S)-2-(2,6-difluoro-4-((4-(2-fluoropyridin-4-yl)phenyl)sulfonamido)benzamido)-3-(8-(thiophen-3-yl)quinolin-5-yl)propanoic acid]	–	91.5 nM	–
CCOCc1cc(OC)c(-c2ccc(C[C@H](NC(=O)c3c(F)cc(CS(=O)(=O)c4ccccc4)cc3F)C(=O)O)c3cccnc23)c(OC)c1 [Example 224]	2.2 nM	–	–
CCOCc1cc(OC)c(-c2ccc(CC(NC(=O)c3c(F)cccc3F)C(=O)O)c3ccc(C(F)(F)F)nc23)c(OC)c1 (stereo not drawn) [Example 38, 2-(2,6-difluorobenzamido)-3-(8-(4-(ethoxymethyl)-2,6-dimethoxyphenyl)-2-(trifluoromethyl)quinolin-5-yl)propanoic acid]	–	29.7 nM	–
N#Cc1ccc(-c2ccc(C[C@H](NC(=O)c3c(F)cc(CS(=O)(=O)c4ccccc4)cc3F)C(=O)O)c3cccnc23)c(Cl)c1 [Example 49, (S)-3-(8-(2-chloro-4-cyanophenyl)quinolin-5-yl)-2-(2,6-difluoro-4-((phenylsulfonyl)methyl)benzamido)propanoic acid]	–	33.7 nM	–
CCOCc1cc(OC)c(-c2ccc(C[C@H](NC(=O)c3c(F)cccc3F)C(=O)O)c3cc(C#N)cnc23)c(OC)c1 [Example 36, (S)-3-(3-cyano-8-(4-(ethoxymethyl)-2,6-dimethoxyphenyl)quinolin-5-yl)-2-(2,6-difluorobenzamido)propanoic acid]	–	21 nM	–
CCOCc1cc(OC)c(-c2ccc(C[C@H](NC(=O)c3c(F)cc(C(N)=O)cc3F)C(=O)O)c3cccnc23)c(OC)c1 [Example 43, (S)-2-(4-carbamoyl-2,6-difluorobenzamido)-3-(8-(4-(ethoxymethyl)-2,6-dimethoxyphenyl)quinolin-5-yl)propanoic acid]	–	4.6 nM	–
CC[C@@H](Nc1cc(F)c(C(=O)N[C@@H](Cc2ccc(-c3ncc4ccccc4c3C(F)(F)F)c3ncccc23)C(=O)O)c(F)c1)C(F)(F)F [Example 276]	4.9 nM	–	–

More lines, main results first:

EC50 [2]	EC50 [3]	Compound	other results
12.5 nM	–	CN1CCc2nc(-c3ccc(C[C@H](NC(=O)c4c(F)cc(N5CCOC[C@@H]5C(F)(F)F)cc4F)C(=O)O)c4cccnc34)ncc2C1 [Example 312]	–
7.9 nM	–	CCOCc1cc(OC)c(-c2ccc(C[C@H](NC(=O)c3c(Cl)cc4[nH]c(Cc5ccccc5)cc4c3Cl)C(=O)O)c3cccnc23)c(OC)c1 [Example 297]	–
15.3 nM	–	CC[C@@H](Nc1cc(F)c(C(=O)N[C@@H](Cc2ccc(-c3nc(C)nc(C)c3C)c3ncccc23)C(=O)O)c(F)c1)C(F)(F)F [Example 320]	–
7.9 nM	–	Cc1cc(C(F)(F)F)c(-c2ccc(C[C@H](NC(=O)c3c(F)cc(N4CC[C@H]4C(F)(F)F)cc3F)C(=O)O)c3cccnc23)c(=O)n1C [Example 298]	–

From patent publication US11116760B2 (Gilead Sciences, Inc., priority 2018, dated 2021)
